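96-well plates; 48 h exposure; 5 concentrations. Endpoints by linear interpolation between flanking doses. Not reached: highest tested concentration assigned. At the GI50, growth is halved.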 Calls of active or inactive are those of the source. Rule as the data show it: active = GI50 up to about 1.1 µM and inactive = higher.
Columns and labels:
Test in all cases: DTP human tumour cell line panel, 48 h
MCF7 = system: MCF7
NCI-H460 = system: NCI-H460
MOLT-4 = system: MOLT-4
TK-10 = system: TK-10
OVCAR-8 = system: OVCAR-8
DU-145 = system: DU-145
CAKI-1 = system: CAKI-1
NCI-H23 = system: NCI-H23
SW-620 = system: SW-620
SF-268 = system: SF-268
K562 = system: K562
MDA-N = system: MDA-N
NCI-H226 = system: NCI-H226
UACC-62 = system: UACC-62
OVCAR-5 = system: OVCAR-5
SNB-75 = system: SNB-75
M14 = system: M14
MDA-MB-231 = system: MDA-MB-231
SK-OV-3 = system: SK-OV-3
LXFL 529 = system: LXFL 529

SMILES	GI50 (MCF7)	GI50 (NCI-H460)	GI50 (MOLT-4)	GI50 (TK-10)	GI50 (OVCAR-8)	GI50 (DU-145)	GI50 (CAKI-1)	GI50 (NCI-H23)	GI50 (SW-620)	GI50 (SF-268)	GI50 (K562)	GI50 (MDA-N)	GI50 (NCI-H226)	GI50 (UACC-62)	GI50 (OVCAR-5)	GI50 (SNB-75)	GI50 (M14)	GI50 (MDA-MB-231)	GI50 (SK-OV-3)	GI50 (LXFL 529)
Nc1nc(N)c2nn(-c3ccc(C(=O)O)cc3)nc2n1	> 100 µM (inactive)	> 100 µM (inactive)	> 100 µM (inactive)	> 100 µM (inactive)	> 100 µM (inactive)	> 100 µM (inactive)	> 100 µM (inactive)	> 100 µM (inactive)	> 100 µM (inactive)	> 100 µM (inactive)	> 100 µM (inactive)	> 100 µM (inactive)	> 100 µM (inactive)	> 100 µM (inactive)	> 100 µM (inactive)	> 100 µM (inactive)	> 100 µM (inactive)	> 100 µM (inactive)	> 100 µM (inactive)	–
CN(C)c1ccc(C=c2c3ccccc3n3c2cc(-c2ccc(Cl)cc2)[n+]3C)cc1	0.0953 µM (active)	0.263 µM (active)	0.147 µM (active)	0.578 µM (active)	0.147 µM (active)	0.177 µM (active)	0.259 µM (active)	0.195 µM (active)	0.242 µM (active)	0.473 µM (active)	< 0.0462 µM (active)	0.327 µM (active)	0.573 µM (active)	0.291 µM (active)	1.04 µM (active)	0.307 µM (active)	0.301 µM (active)	0.217 µM (active)	0.331 µM (active)	–
CN1CCOC1(C)c1ccccc1 (configuration not stated)	> 100 µM (inactive)	> 100 µM (inactive)	> 100 µM (inactive)	> 100 µM (inactive)	> 100 µM (inactive)	> 100 µM (inactive)	> 100 µM (inactive)	> 100 µM (inactive)	> 100 µM (inactive)	> 100 µM (inactive)	> 100 µM (inactive)	> 100 µM (inactive)	> 100 µM (inactive)	> 100 µM (inactive)	> 100 µM (inactive)	> 100 µM (inactive)	> 100 µM (inactive)	> 100 µM (inactive)	> 100 µM (inactive)	–
N#CC(C(=O)/C(=N/N)C(C#N)c1ccc(Cl)cc1)c1ccc(Cl)cc1 (configuration not stated)	–	> 100 µM (inactive)	> 100 µM (inactive)	> 100 µM (inactive)	> 100 µM (inactive)	–	–	> 100 µM (inactive)	> 100 µM (inactive)	> 100 µM (inactive)	> 100 µM (inactive)	–	> 100 µM (inactive)	> 100 µM (inactive)	> 100 µM (inactive)	> 100 µM (inactive)	> 100 µM (inactive)	–	–	> 100 µM (inactive)
Cc1nc2sccn2c1C(=O)NNC(N)=S	–	> 100 µM (inactive)	> 100 µM (inactive)	> 100 µM (inactive)	> 100 µM (inactive)	–	> 100 µM (inactive)	> 100 µM (inactive)	> 100 µM (inactive)	> 100 µM (inactive)	> 100 µM (inactive)	–	> 100 µM (inactive)	> 100 µM (inactive)	> 100 µM (inactive)	–	–	–	> 100 µM (inactive)	> 100 µM (inactive)
CCc1cc(CCC(=O)Nc2ccccc2[N+](=O)[O-])nc(S)n1	–	> 100 µM (inactive)	> 100 µM (inactive)	> 100 µM (inactive)	> 100 µM (inactive)	–	–	> 100 µM (inactive)	> 100 µM (inactive)	> 100 µM (inactive)	> 100 µM (inactive)	–	> 100 µM (inactive)	> 100 µM (inactive)	> 100 µM (inactive)	–	> 100 µM (inactive)	–	> 100 µM (inactive)	> 100 µM (inactive)
CCOc1ncnc2ccc(Cl)c(I)c12	–	80.7 µM (inactive)	–	62.7 µM (inactive)	> 100 µM (inactive)	–	22.6 µM (inactive)	79.1 µM (inactive)	> 100 µM (inactive)	31.2 µM (inactive)	88.7 µM (inactive)	–	–	46.5 µM (inactive)	> 100 µM (inactive)	–	75.2 µM (inactive)	–	36.4 µM (inactive)	81.1 µM (inactive)
CC(NNC(=O)c1ccncc1)c1ccc(Cl)cc1Cl (configuration not stated)	> 100 µM (inactive)	51.2 µM (inactive)	83.8 µM (inactive)	> 100 µM (inactive)	> 100 µM (inactive)	> 100 µM (inactive)	> 100 µM (inactive)	> 100 µM (inactive)	> 100 µM (inactive)	> 100 µM (inactive)	> 100 µM (inactive)	> 100 µM (inactive)	> 100 µM (inactive)	> 100 µM (inactive)	> 100 µM (inactive)	> 100 µM (inactive)	> 100 µM (inactive)	> 100 µM (inactive)	> 100 µM (inactive)	–
C=C(COC(C)=O)CC(/C=C(\C)CCC=C(C)C)OC(C)=O (configuration not stated)	–	> 100 µM (inactive)	48.4 µM (inactive)	> 100 µM (inactive)	> 100 µM (inactive)	–	–	> 100 µM (inactive)	> 100 µM (inactive)	> 100 µM (inactive)	> 100 µM (inactive)	–	> 100 µM (inactive)	> 100 µM (inactive)	> 100 µM (inactive)	50.6 µM (inactive)	> 100 µM (inactive)	–	> 100 µM (inactive)	> 100 µM (inactive)
CCCCCCCCCCCCC(Br)C(=O)NCC(N)=O (configuration not stated)	–	16 µM (inactive)	–	18.1 µM (inactive)	4.79 µM (inactive)	–	–	4.51 µM (inactive)	16 µM (inactive)	3.42 µM (inactive)	–	–	1.67 µM (inactive)	5.86 µM (inactive)	29.4 µM (inactive)	0.118 µM (active)	11.1 µM (inactive)	–	41.6 µM (inactive)	9.91 µM (inactive)
O=c1oc2c3ccc4ccccc4c3n(CCN3CCOCC3)c2c2ccccc12	–	0.755 µM (active)	1.69 µM (inactive)	> 100 µM (inactive)	> 100 µM (inactive)	–	6.78 µM (inactive)	–	5.73 µM (inactive)	19.7 µM (inactive)	3.89 µM (inactive)	–	–	3.68 µM (inactive)	–	6.08 µM (inactive)	58.5 µM (inactive)	–	> 100 µM (inactive)	> 100 µM (inactive)
COc1ccc(/N=N/c2c(-c3ccccc3)nn(C(=O)CC(=O)Nc3ccccc3Cl)c2-c2ccccc2)cc1	–	> 100 µM (inactive)	3.42 µM (inactive)	77.6 µM (inactive)	> 100 µM (inactive)	–	> 100 µM (inactive)	> 100 µM (inactive)	> 100 µM (inactive)	82.8 µM (inactive)	30.7 µM (inactive)	–	> 100 µM (inactive)	> 100 µM (inactive)	97.5 µM (inactive)	6.12 µM (inactive)	> 100 µM (inactive)	–	–	> 100 µM (inactive)
O=C1Nc2nc3ccccc3n2N=C2CCCC12 (configuration not stated)	–	> 100 µM (inactive)	> 100 µM (inactive)	> 100 µM (inactive)	> 100 µM (inactive)	–	> 100 µM (inactive)	> 100 µM (inactive)	> 100 µM (inactive)	> 100 µM (inactive)	> 100 µM (inactive)	–	–	> 100 µM (inactive)	> 100 µM (inactive)	> 100 µM (inactive)	> 100 µM (inactive)	–	> 100 µM (inactive)	> 100 µM (inactive)

— ChEMBL document CHEMBL1201862, “PubChem BioAssay data set” (2004)
